Data: patent publication US8362067B2, “3-aminoalkyl-1,3-dihydro-2H-indol-2-one derivatives, preparation thereof and therapeutic use thereof” (Sanofi, priority 2008, dated 2013)
pIC50: −log10 of the molar value. Counter-ions that a name gives are not always drawn.

Legend:
[1] = biological target: human arginine-vasopressin V1a receptors (Homo sapiens, UniProt P37288); assay: Affinity for human V1a receptors: displacement of [3H]-AVP; format: binding; details: for pIC50: binding, displacement of [3H]-AVP; for selectivity for human AVP V1a receptors and for human AVP V1b receptors: versus V2 and/or oxytocin receptors
Sequence of human arginine-vasopressin V1a receptors (P37288 whole entry): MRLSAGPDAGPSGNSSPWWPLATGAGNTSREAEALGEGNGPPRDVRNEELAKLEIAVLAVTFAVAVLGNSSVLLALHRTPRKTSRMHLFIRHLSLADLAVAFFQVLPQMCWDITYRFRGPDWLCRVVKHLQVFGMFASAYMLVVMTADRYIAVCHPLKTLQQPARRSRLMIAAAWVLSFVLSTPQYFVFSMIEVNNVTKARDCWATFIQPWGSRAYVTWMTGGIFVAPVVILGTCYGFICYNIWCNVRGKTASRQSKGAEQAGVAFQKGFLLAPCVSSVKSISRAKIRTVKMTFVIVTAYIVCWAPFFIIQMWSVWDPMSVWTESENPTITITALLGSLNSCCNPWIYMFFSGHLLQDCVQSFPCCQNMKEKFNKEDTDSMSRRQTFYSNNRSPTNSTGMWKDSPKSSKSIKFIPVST
Procedure: (§1) The affinity of the compounds of formula (I) according to the invention for arginine-vasopressin V1a receptors was determined in vitro using the method described by M. Thibonnier et al., J. Biol. Chem., 1994, 269, 3304-3310. This method consists in studying in vitro the displacement of tritiated arginine-vasopressin ([^3H]-AVP) at the V1a receptors present on membrane or cell preparations carrying rat or human V1a receptors.
(§2) The comparative pharmacological results of Compounds Nos. 17, 38, 46, 107 and 108 according to the invention with the compounds α and β of the prior art on the various in vitro tests measuring the affinity at human V1a, V1b, V2 and oxytocin receptors are illustrated in the following TABLE XV. The results are expressed by the 50% inhibitory concentration (IC50) expressed on a nanomolar basis (nM).

human V1b receptors = biological target: T1, human V1b receptors (Homo sapiens, UniProt P47901); assay: Affinity for human V1b receptors: displacement of [3H]-AVP; details: binding
T1 sequence (P47901 1-424): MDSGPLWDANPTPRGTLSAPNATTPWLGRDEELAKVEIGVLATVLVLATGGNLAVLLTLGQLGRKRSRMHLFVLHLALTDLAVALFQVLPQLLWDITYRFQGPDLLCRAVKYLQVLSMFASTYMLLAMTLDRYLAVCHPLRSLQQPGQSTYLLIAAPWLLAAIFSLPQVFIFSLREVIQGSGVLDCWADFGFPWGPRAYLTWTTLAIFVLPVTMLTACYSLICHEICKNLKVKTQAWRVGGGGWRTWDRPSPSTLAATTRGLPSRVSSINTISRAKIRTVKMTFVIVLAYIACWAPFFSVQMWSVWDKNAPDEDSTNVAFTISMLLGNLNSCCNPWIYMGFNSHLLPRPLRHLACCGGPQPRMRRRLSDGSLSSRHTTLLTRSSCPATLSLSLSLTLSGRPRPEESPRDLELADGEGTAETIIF
Procedure: as §1, with “V1b” for “V1a”, “Y. de Keyser” for “M. Thibonnier”, “al. in Febs Letters,” for “al., J. Biol. Chem.,”, “356, 215-220.” for “269, 3304-3310.”, “on” for “on membrane or”, “carrying” for “carrying rat or”
as §2

human V2 receptors = human V2 receptors (Homo sapiens, UniProt P30518); assay: Affinity for vasopressin V2 receptors; format: binding; details: for pIC50: binding
Sequence of human V2 receptors (P30518 whole entry): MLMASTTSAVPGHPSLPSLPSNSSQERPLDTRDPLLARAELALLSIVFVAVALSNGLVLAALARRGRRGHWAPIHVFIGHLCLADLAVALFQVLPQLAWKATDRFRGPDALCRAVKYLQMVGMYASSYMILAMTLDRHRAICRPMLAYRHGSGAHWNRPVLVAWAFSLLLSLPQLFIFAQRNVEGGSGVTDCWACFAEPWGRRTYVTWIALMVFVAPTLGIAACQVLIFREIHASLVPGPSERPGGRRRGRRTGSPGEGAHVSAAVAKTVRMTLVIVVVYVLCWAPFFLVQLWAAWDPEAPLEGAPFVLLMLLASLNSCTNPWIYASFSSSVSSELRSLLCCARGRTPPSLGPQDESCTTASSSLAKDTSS
Text: The affinity of the compounds of formula (I) according to the invention for vasopressin V2 receptors was also studied (method described by M. Birnbaumer et al. in Nature (Lond.), 1992, 357, 333-335).
as §2

[2] = biological target: T2, human uterine oxytocin receptor (Homo sapiens, UniProt P30559); assay: Affinity for oxytocin receptors: displacement of a radioiodinated oxytocin analog; format: binding; details: for pIC50: binding, radioiodinated oxytocin analog
T2 construct: expressed in transfected cells
T2 sequence (P30559 1-389): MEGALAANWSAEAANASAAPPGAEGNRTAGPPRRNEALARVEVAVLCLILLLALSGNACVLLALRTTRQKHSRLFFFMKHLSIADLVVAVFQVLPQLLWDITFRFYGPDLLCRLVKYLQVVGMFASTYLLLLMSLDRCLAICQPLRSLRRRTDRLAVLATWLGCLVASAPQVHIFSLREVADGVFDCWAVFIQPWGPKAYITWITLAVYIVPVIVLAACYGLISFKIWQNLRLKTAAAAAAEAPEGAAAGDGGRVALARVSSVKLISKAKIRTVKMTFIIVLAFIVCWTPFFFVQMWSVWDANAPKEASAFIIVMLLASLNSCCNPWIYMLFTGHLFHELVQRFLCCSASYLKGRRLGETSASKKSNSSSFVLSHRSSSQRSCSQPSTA
Procedure: The affinity of the compounds according to the invention for oxytocin receptors was determined in an in vitro binding test using the method described by J. Elands et al. in Eur. J. Pharmacol., 1987, 147, 197-207. This method consists in studying in vitro the displacement of a radioiodinated oxytocin analog at the oxytocin receptors in a cell membrane preparation transfected with the human uterine oxytocin receptor.
as §2

human V1a receptors = human V1a receptors (Homo sapiens, UniProt P37288); assay: Measurement of intracellular calcium (FLIPR) on cells expressing human V1a receptors; format: cell-based; details: blocking the pharmacological effects brought about by arginine-vasopressin (FLIPR and platelet aggregation tests)
Sequence of human V1a receptors (P37288 whole entry): as the sequence (P37288 whole entry) above
Procedure: The agonist or antagonist nature of the compounds is determined in vitro in a test for the measurement of intracellular calcium (FLIPR) on cells expressing human V1a receptors according to the general technique described in Sullivan et al., Methods Mol. Biol., 1999, 114, 125-133, using 1 μM of Fluo4 AM, and in a test for platelet aggregation induced with AVP on human PRP (platelet-rich plasma) according to the methodology described in J. Clin. Invest., 1993, 92, 224-231. The compounds are preincubated 30 minutes before the addition of the arginine-vasopressin in order to determine the agonist and antagonist properties of these molecules.

Row | SMILES | melting point [°C] | pIC50 [1] | pIC50 (human V1b receptors) | pIC50 (human V2 receptors) | pIC50 [2] | further results
1 | COc1cc2c(cc1Cl)C(CCCN1CCNCC1)(c1ccccc1F)C(=O)N2S(=O)(=O)c1ccc(OC(F)F)cc1 (stereo not drawn) (as salt: HCl) [compound 24, 5-chloro-1-{[4-(difluoromethoxy)phenyl]sulfonyl}-3-(2-fluorophenyl)-6-methoxy-3-(3-(piperazin-1-yl)propyl)-1,3-dihydro-2H-indol-2-one] | 218 |  |  |  |  | 
2 | COc1cc2c(cc1Cl)C(CCCN1CCNCC1)(c1ccccc1F)C(=O)N2S(=O)(=O)c1ccc(OC(F)(F)F)cc1 (stereo not drawn) (as salt: HCl) [compound 25, 5-chloro-3-(2-fluorophenyl)-6-methoxy-3-(3-(piperazin-1-yl)propyl)-1-{[4-(tri-fluoromethoxy)phenyl]sulfonyl}-1,3-dihydro-2H-indol-2-one] | 220 |  |  |  |  | 
3 | COc1cc2c(cc1Cl)C(CCCN1CCNCC1)(c1ccccc1F)C(=O)N2S(=O)(=O)c1ccccc1 (stereo not drawn) (as salt: HCl) [compound 26, 5-chloro-3-(2-fluorophenyl)-6-methoxy-1-(phenylsulfonyl)-3-(3-(piperazin-1-yl)propyl)-1,3-dihydro-2H-indol-2-one] | 238 |  |  |  |  | 
4 | COc1ccc(S(=O)(=O)N2C(=O)C(CCCC3CCNCC3)(c3ccccc3F)c3cc(Cl)c(OC)cc32)c(OC)c1.Cl (stereo not drawn) [Compound No. 1] | 163 |  |  |  |  | 
5 | COc1ccc(S(=O)(=O)N2C(=O)C(CCCC3CCNCC3)(c3ccccc3F)c3cc(Cl)c(OC)cc32)c(OC)c1.Cl (stereo not drawn) [Compound No. 2] | 175 |  |  |  |  | 
6 | COc1cc2c(cc1Cl)C(CCCN1CCN(C)CC1)(c1ccccc1F)C(=O)N2S(=O)(=O)c1ccc(OC(C)C)cc1.Cl (stereo not drawn) [Compound No. 13, 5-Chloro-3-(2-fluorophenyl)-1-[(4-isopropoxyphenyl)sulfonyl]-6-methoxy-3-[3-(4-methylpiperazin-1-yl)propyl]-1,3-dihydroindol-2-one hydrochloride] | 205 |  |  |  |  | agonist or antagonist nature at V1a receptors (human V1a receptors): antagonists of V1a receptors
7 | CCN(CC)C(=O)Nc1ccc(S(=O)(=O)N2C(=O)C(NCCC3CCNCC3)(c3ccccc3Cl)c3cc(Cl)c(Cl)cc32)cc1 (stereo not drawn) [Compound α, 3-[4-[[5,6-dichloro-3-(2-chlorophenyl)-2-oxo-3-[(2-(piperidin-4-yl)ethyl)amino]-2,3-dihydro-1H-indol-1-yl]sulfonyl]phenyl]-1,1-diethylurea, reference compound] |  |  |  |  |  | affinity for human AVP V1a receptors [1]: good affinity; selectivity for human AVP V1a receptors and for human AVP V1b receptors [1]: not selective; affinity for human AVP V2 receptors (human V2 receptors): good affinity; affinity for oxytocin receptors [2]: good affinity
8 | CCN(CC)C(=O)Nc1ccc(S(=O)(=O)N2C(=O)C(NCCC3CCNCC3)(c3ccccc3Cl)c3cc(Cl)c(C)cc32)cc1 (stereo not drawn) [Compound β, 3-[4-[[5-chloro-3-(2-chlorophenyl)-6-methyl-2-oxo-3-[(2-(piperidin-4-yl)ethyl)amino]-2,3-dihydro-1H-indol-1-yl]sulfonyl]phenyl]-1,1-diethylurea, reference compound] |  |  |  |  |  | affinity for human AVP V1a receptors [1]: good affinity; selectivity for human AVP V1a receptors and for human AVP V1b receptors [1]: not selective; affinity for human AVP V2 receptors (human V2 receptors): good affinity

Now from value to molecule, other results behind:

Row | melting point [°C] | pIC50 [1] | pIC50 (human V1b receptors) | pIC50 (human V2 receptors) | pIC50 [2] | SMILES | further results
9 | 152 |  |  |  |  | COc1ccc(S(=O)(=O)N2C(=O)C(CCCN3CCNCC3)(c3ccccc3F)c3cc(F)c(OC)cc32)cc1C (stereo not drawn) (as salt: HCl) [compound 107] | 
10 | 160 |  |  |  |  | COc1ccc(S(=O)(=O)N2C(=O)C(CCCN3CCNCC3)(c3ccccc3F)c3cc(OC)c(OC)cc32)cc1C (stereo not drawn) (as salt: HCl) [compound 108] | 
11 | 232 | 8.62 | < 6.00 | 6.35 | 6.41 | COc1cc2c(cc1Cl)C(CCCN1CCNCC1)(c1ccccc1F)C(=O)N2S(=O)(=O)c1ccc(OC(C)C)cc1.Cl (single isomer, unassigned) [Compound No. 17, 5-Chloro-3-(2-fluorophenyl)-1-[(4-isopropoxyphenyl)sulfonyl]-6-methoxy-3-[3-(piperazin-1-yl)propyl]-1,3-dihydroindol-2-one hydrochloride] | agonist or antagonist nature at V1a receptors (human V1a receptors): antagonists of V1a receptors
12 |  | 8.96 | < 6.00 | < 6.00 | 6.30 | COc1cccc(S(=O)(=O)N2C(=O)C(CCCN3CCN(C)CC3)(c3ccccc3F)c3cc(Cl)c(OC)cc32)c1 (stereo not drawn) [Compound No. 38] | 
13 |  | 8.62 | 6.19 | < 6.00 | 6.42 | COc1cc2c(cc1Cl)C(CCCN1CCNCC1)(c1ccccc1F)C(=O)N2S(=O)(=O)c1ccc(O)cc1 (stereo not drawn) [Compound No. 46] | 
14 | 88 |  |  |  |  | CCOc1ccc(S(=O)(=O)N2C(=O)C(CCCN3CCC(F)(F)CC3)(c3ccccc3F)c3cc(Cl)c(OC)cc32)cc1OC (stereo not drawn) [compound 9, 5-chloro-3-[3-(4,4-difluoropiperidin-1-yl)propyl]-1-[(4-ethoxy-3-methoxy-phenyl)sulfonyl]-3-(2-fluorophenyl)-6-methoxy-1,3-dihydro-2H-indol-2-one] | 
15 |  | 8.07 | 6.85 | < 6.00 | < 6.00 | COc1ccc(S(=O)(=O)N2C(=O)C(CCCN3CCNCC3)(c3ccccc3F)c3cc(F)c(OC)cc32)cc1C (stereo not drawn) [compound 107] | 
16 |  | 8.30 | 6.49 | < 6.00 | < 6.00 | COc1ccc(S(=O)(=O)N2C(=O)C(CCCN3CCNCC3)(c3ccccc3F)c3cc(OC)c(OC)cc32)cc1C (stereo not drawn) [compound 108] | 
